Results as given in patent US7928099B2, “Pyrimido [4,5-D] azepine derivatives as 5-HT2c agonists” (Pfizer Inc, priority 2007, dated 2011).
Counter-ions that a name gives are not always drawn.

How the values were obtained:
[1] = molecular target: T1, human recombinant 5-HT2c receptor (Homo sapiens, UniProt P28335); test: 3H-meselurgine radioligand binding SPA, membranes from Swiss 3T3 cells (Method 2); conditions: 3H-meselurgine displacement, Cheng-Prusoff; Swiss 3T3 membranes; read-out: Binding Affinity Ki
T1 construct: expressed in transfected cells; host or cells: CHO K1 (Chinese hamster ovary), stably transfected
T1 sequence (P28335 33-458): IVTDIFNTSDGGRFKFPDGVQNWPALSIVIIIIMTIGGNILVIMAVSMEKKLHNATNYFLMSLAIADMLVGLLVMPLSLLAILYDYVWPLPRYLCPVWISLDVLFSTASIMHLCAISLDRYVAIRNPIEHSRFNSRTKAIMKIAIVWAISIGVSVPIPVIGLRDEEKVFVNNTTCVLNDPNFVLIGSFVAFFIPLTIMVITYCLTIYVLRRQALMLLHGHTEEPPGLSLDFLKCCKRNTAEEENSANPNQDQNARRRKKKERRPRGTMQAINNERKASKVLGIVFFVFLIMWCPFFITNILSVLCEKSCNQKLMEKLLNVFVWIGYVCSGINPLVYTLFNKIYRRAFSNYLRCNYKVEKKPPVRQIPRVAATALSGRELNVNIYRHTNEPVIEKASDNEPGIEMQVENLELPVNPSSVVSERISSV
Experimental: (§1) The compounds of the invention were evaluated for biological activity by measuring the agonist affinity (EC50) and efficacy (Emax) at the human recombinant 5-HT2c receptor expressed in CHO K1 cells, using a fluorescent based Ca^2+ mobilisation assay format compatible with FLIPR technology (Method 1). Additionally, the binding activity of a compound was determined by measuring its affinity for the human recombinant 5-HT2c receptor membranes from Swiss 3T3 cells (Method 2).
The compounds were tested for biological activity by their ability to inhibit binding of the radioligand ^3H-meselurgine at the human recombinant 5-HT2C receptor expressed in the Swiss 3T3 cells using a scintillation proximity assay (SPA) technology.
Swiss 3T3 stably transfected with the 5-HT2C receptor were cultured under standard cell culture techniques. Specifically, cells were grown in 50 mL growth medium (Dulbecco's Modified Eagle's Medium (DMEM) culture media supplemented with 10% dialysed foetal calf serum (FCS), 2 mM penicillin/streptomycin and 20 μg/mL geneticin) in 225 cm^2 flasks at 37° C. and 5% CO2. Cells were grown to 60-80% confluency, harvested using trypsin-EDTA and pelleted by centrifugation for long-term storage at −80° C.
Cell pellets were thawed on ice and resuspended in 3 mL of membrane preparation buffer (see Media and Buffers for composition) per 1 mL of packed cell. The suspension was homogenised on ice for several 5 s intervals using a hand-held homogeniser. The homogenate was then centrifuged at 1,000 rpm for 5 min at 4° C.
The supernatants were then collected and retained. Initial cell & nuclei pellets (P1) were subsequently rehomogenised and centrifuged using the conditions cited above, and the supernatants collected and pooled with those retained from the first spin.
The pooled supernatants were centrifuged at 19,500 rpm for 45 min at 4° C., and the supernatants discarded. The pellets (P2) were then resuspended in 3 mL of membrane preparation buffer per 1 mL of the original packed cell volume. Protein concentrations were subsequently measured and the membrane suspension was finally frozen in aliquots of set volume and stored at −80° C. prior to use in assays.
For each batch of membrane used, optimal concentrations of Polylysine YSi SPA beads and membrane were determined. The assay free radioligand concentration was expressed as a percentage of the total free radioligand concentration to give an estimate of the radioligand depletion.
The affinity of ^3H-meselurgine for the human recombinant 5-HT2c receptor was determined for each membrane batch at the selected protein and bead concentrations. […] The mean KD for ^3H-meselurgine at a batch of membranes was determined from data from a minimum of three separate assays.
The required amount of membrane, was thawed on ice and added to a pre-determined volume of bead suspension in 50 mM HEPES buffer, pH 7.4. The beads were then pre-coupled by incubating the predetermined protein quantity per mg of bead on a roller 4° C. for 1 h. Subsequently, the bead/membrane complex was spun down at 1000 rpm for 5 min. The resulting pellet was resuspended in assay buffer at the specific concentration required for the final assay.
An aliquot of [^3H]-meselurgine stock was diluted in binding assay buffer to give a pre-determined final assay concentration less than the equilibrium dissociation constant (KD) value.
All test compounds were prepared at a concentration of 4 mM in 100% dimethyl sulphoxide (DMSO) from dry samples.
The same volume of assay buffer was added to specific wells of the plate to enable subsequent measurement of total radioligand binding. Furthermore, 5 μL of Mianserin at 25 μM (2.5 μM final assay concentration was subsequently added to pre-determined wells to determine non-specific binding (NSB).

[2] = molecular target: T1, human recombinant 5-HT2c receptor; test: FLIPR fluorescent Ca2+ mobilisation agonist assay in CHO K1 cells (Method 1); type: cell-based; conditions: for Emax: CHO-K1, efficacy; for EC50: agonist affinity, FLIPR
Experimental: as §1
The agonist affinity of the compounds were tested by measuring their ability to induce a fluorescent based Ca^2+ mobilization signal in a FLIPR assay using CHO K1 cells expressing recombinant human 5-HT2C receptor. Both agonist affinity (EC50) and efficacy (Emax) were determined.
Chinese hamster ovary cells (CHO K1) stably transfected with the 5-HT2c receptor were cultured under standard cell culture techniques. Specifically, cells were grown at 37° C. and 5% CO2 in Dulbecco's Modified Eagle's Medium (DMEM) culture media supplemented with 10% dialysed foetal calf serum (FCS), 1% non-essential amino acids, 1 mM sodium pyruvate, 800 μg/mL geneticin and 50 μg/ml zeocin. Cells were harvested for passaging and storage using trypsin-EDTA, centrifugation and resuspension in culture medium. Cells were grown to 60-80% confluency, harvested and adjusted to 15-20×10^6 cells/ml/vial in medium/10% DMSO and stored long-term at −80° C.
Cells were seeded into black-walled clear-bottomed 384 well plates 24 h before use. Frozen cells were defrosted in a 37° C. water bath and immediately transferred into 1 mL/vial 37° C. culture medium, diluted to 10 ml and DMSO removed by centrifugation. The cells were resuspended in 15 ml/vial of cell culture medium, counted and adjusted to give 500,000 cells/mL (10,000 cells/well). […] of cell suspension was added to the 384 well plates which were then incubated overnight at 37° C.
The maximum agonist response was determined with 5-HT at a final assay concentration of 10 μM in the diluent above. The minimum response was determined with Dulbeccos PBS (+CaCl2, +MgCl2) with 0.9% DMSO and 0.05% pluronic F-127. Test compounds, maximum and minimum controls were added to a 384 well polypropylene plate.
The FLIPR calcium assay reagent was diluted with assay buffer (Hank's Balanced Salt Solution (HBSS))/20 mM HEPES and 2.5 mM probenecid (diluted with 1M Sodium hydroxide and DPBS (+CaCl2, +MgCl2)).
20 μl/well FLIPR calcium assay reagent was added to the cell plates, which were incubated for 1 h at 37° C. Cell plates and compound plates were then transferred onto the FLIPR. The assay was run using the appropriate FLIPR program, which initiates the reaction by transferring 15 μL compound into the corresponding, well of the cell plate.
The statistical parameter exported from each well was the max peak height of the response.

[3] = percentage of mean maximal response to 10 μM 5-HT

Ki [1] [nM] | Emax [2, 3] [%] | EC50 [2] [nM] | Emax % ([2]; efficacy, percentage of mean maximal response to 10 μM 5-HT) [%] | SMILES
144 | 50.8 | 279 | – | CN(C)c1nc(N(C)Cc2ccccc2)nc2c1CCNCC2 [Example 14, N-2-benzyl-N-2,N-4,N-4-trimethyl-6,7,8,9-tetrahydro-5H-pyrimido[4,5,d]azepin-2-amine]
181 | – | 202 | 64.10 | CN(Cc1ccccc1)c1nc2c(c(N3CCOCC3)n1)CCNCC2 [Example 15, N-benzyl-N-methyl-4-morpholin-4-yl-6,7,8,9-tetrahydro-5H-pyrimido[4,5,d]azepin-2-amine]
54.7 | 41.4 | 526 | – | COc1nc(N(C)Cc2ccccc2)nc2c1CCNCC2 [Example 16, N-benzyl-4-methoxy-N-methyl-6,7,8,9-tetrahydro-5H-pyrimido[4,5,d]azepin-2-amine]
243 | 51.3 | 558 | – | OC1CCCN(c2nc(Cc3ccccc3)nc3c2CCNCC3)C1 (stereo not drawn) [Example 18, 1-(2-benzyl-6,7,8,9-tetrahydro-5H-pyrimido[4,5-d]azepin-4-yl)piperidin-3-ol hydrochloride]
52.4 | 36.3 | 344 | – | c1ccc(Cc2nc3c(c(NCC4CCCO4)n2)CCNCC3)cc1 (stereo not drawn) [Example 19, 2-benzyl-N-(tetrahydrofuran-2-ylmethyl)-6,7,8,9-tetrahydro-5H-pyrimidol[4,5-d]azepin-4-amine hydrochloride]
107 | 72.6 | 159 | – | OCCNc1nc(Cc2ccccc2)nc2c1CCNCC2 [Example 23, 2-[(2-benzyl-6,7,8,9-tetrahydro-5H-pyrimido[4,5-d]azepin-4-yl)amino]ethanol hydrochloride]
91.4 | 69.9 | 119 | – | CC(C)[C@@H](CO)Nc1nc(Cc2ccccc2)nc2c1CCNCC2 [Example 24, (2S)-2-[(2-benzyl-6,7,8,9-tetrahydro-5H-pyrimido[4,5-d]azepin-4-yl)amino]-3-methylbutan-1-ol hydrochloride]
229 | 60.9 | 417 | – | CO[C@H]1CCN(c2nc(Cc3ccccc3)nc3c2CCNCC3)C1 [Example 26, 2-benzyl-4-[(3S)-3-methoxypyrrolidin-1-yl]-6,7,8,9-tetrahydro-5H-pyrimido[4,5-d]azepine hydrochloride]
25.4 | 35 | 57.2 | – | c1ccc(Cc2nc3c(c(NCCn4cccn4)n2)CCNCC3)cc1 [Example 27, 2-benzyl-N-[2-(1H-pyrazol-1-yl)ethyl]-6,7,8,9-tetrahydro-5H-pyrimido[4,5-d]azepin-4-amine hydrochloride]
177 | 37.7 | 962 | – | c1ccc(Cc2nc3c(c(N4CCCCC4)n2)CCNCC3)cc1 [Example 29, 2-benzyl-4-piperidin-1-yl-6,7,8,9-tetrahydro-5H-pyrimido[4,5-d]azepine hydrochloride]
99.1 | 54.8 | 984 | – | CC1CCCN(c2nc(Cc3ccccc3)nc3c2CCNCC3)C1 (stereo not drawn) [Example 30, 2-benzyl-4-(3-methylpiperidin-1-yl)-6,7,8,9-tetrahydro-5H-pyrimido[4,5-d]azepine hydrochloride]
125 | 58.5 | 424 | – | CC(CO)Nc1nc(Cc2ccccc2)nc2c1CCNCC2 (stereo not drawn) [Example 33, 2-[(2-benzyl-6,7,8,9-tetrahydro-5H-pyrimido[4,5-d]azepin-4-yl)amino]propan-1-ol hydrochloride]
514 | 66 | 336 | – | OC1CCN(c2nc(Cc3ccccc3)nc3c2CCNCC3)CC1 [Example 38, 1-(2-benzyl-6,7,8,9-tetrahydro-5H-pyrimido[4,5-d]azepin-4-yl)piperidin-4-ol hydrochloride]
696 | 30.6 | 516 | – | c1ccc(Cc2nc3c(c(NC4CCOC4)n2)CCNCC3)cc1 (stereo not drawn) [Example 39, 2-benzyl-N-(tetrahydrofuran-3-yl)-6,7,8,9-tetrahydro-5H-pyrimido[4,5-d]azepin-4-amine hydrochloride]
413 | 40.6 | 309 | – | N#CC1CCCN(c2nc(Cc3ccccc3)nc3c2CCNCC3)C1 (stereo not drawn) [Example 40, 1-(2-benzyl-6,7,8,9-tetrahydro-5H-pyrimido[4,5-d]azepin-4-yl)piperidine-3-carbonitrile hydrochloride]
86.9 | 74.7 | 57 | – | OC1(CNc2nc(Cc3ccccc3)nc3c2CCNCC3)CCC1 [Example 41, 1-{[(2-benzyl-6,7,8,9-tetrahydro-5H-pyrimido[4,5-d]azepin-4-yl)amino]methyl}cyclobutanol hydrochloride]
102 | 75.4 | 67 | – | OCC1CCN(c2nc(Cc3ccccc3)nc3c2CCNCC3)C1 (stereo not drawn) [Example 42, [1-(2-benzyl-6,7,8,9-tetrahydro-5H-pyrimido[4,5-d]azepin-4-yl)pyrrolidin-3-yl]methanol hydrochloride]
61 | 52.6 | 190 | – | FC1CCN(c2nc(Cc3ccccc3)nc3c2CCNCC3)C1 (stereo not drawn) [Example 43, 2-benzyl-4-(3-fluoropyrrolidin-1-yl)-6,7,8,9-tetrahydro-5H-pyrimido[4,5-d]azepine hydrochloride]
